Experimental data taken from patent US20050148634A1, “1-N-Aminobenzimidazole derivatives” (ZERIA PHARMACEUTICAL CO., LTD, priority 2002, published 2005).
Counter-ions that a name gives are not always drawn.

How the values were obtained:
[1] = biological target: T1, H+/K+-ATPase (Sus scrofa, UniProt P19156); assay: Test 1 proton pump inhibitory effect: H+/K+-ATPase enzyme inhibiting activity at pH 1; assay type: biochemical; details: swine stomach enzyme sample; test compound pretreated in pH 1 hydrochloric acid solution with 50% DMSO for 15 minutes; ATP substrate
T1 construct: An interface fraction obtained by the centrifugation was collected; from tissue; host or cells: swine stomach mucosal layer, membrane fraction from the sucrose interface
T1 sequence (P19156 2-1034 limits assumed): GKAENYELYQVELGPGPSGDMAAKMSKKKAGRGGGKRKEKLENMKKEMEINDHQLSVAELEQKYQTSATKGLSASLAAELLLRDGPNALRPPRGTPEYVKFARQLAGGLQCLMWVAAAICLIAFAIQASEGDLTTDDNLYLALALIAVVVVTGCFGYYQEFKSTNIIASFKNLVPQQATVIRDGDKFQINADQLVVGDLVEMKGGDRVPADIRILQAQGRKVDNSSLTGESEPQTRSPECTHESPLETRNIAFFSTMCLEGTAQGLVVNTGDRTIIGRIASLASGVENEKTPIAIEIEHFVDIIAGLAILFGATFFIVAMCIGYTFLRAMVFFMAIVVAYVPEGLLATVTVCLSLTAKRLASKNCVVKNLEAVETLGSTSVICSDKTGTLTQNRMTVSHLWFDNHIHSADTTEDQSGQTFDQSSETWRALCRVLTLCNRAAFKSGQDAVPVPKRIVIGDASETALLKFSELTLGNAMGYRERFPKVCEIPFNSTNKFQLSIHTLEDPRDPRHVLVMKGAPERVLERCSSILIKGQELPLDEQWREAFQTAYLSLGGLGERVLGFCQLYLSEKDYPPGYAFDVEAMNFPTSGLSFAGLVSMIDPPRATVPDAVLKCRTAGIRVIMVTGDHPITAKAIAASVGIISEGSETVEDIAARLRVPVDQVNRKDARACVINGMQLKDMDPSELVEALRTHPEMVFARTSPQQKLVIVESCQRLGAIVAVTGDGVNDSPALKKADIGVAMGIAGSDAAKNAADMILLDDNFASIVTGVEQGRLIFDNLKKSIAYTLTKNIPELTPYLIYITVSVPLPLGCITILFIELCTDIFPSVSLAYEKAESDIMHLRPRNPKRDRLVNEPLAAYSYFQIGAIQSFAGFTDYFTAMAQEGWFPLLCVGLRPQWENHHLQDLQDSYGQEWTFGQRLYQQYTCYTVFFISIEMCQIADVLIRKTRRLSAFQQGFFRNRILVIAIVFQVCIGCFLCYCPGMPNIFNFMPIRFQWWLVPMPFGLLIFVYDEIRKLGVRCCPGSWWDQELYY
T1 sequence (P18434 whole entry partner): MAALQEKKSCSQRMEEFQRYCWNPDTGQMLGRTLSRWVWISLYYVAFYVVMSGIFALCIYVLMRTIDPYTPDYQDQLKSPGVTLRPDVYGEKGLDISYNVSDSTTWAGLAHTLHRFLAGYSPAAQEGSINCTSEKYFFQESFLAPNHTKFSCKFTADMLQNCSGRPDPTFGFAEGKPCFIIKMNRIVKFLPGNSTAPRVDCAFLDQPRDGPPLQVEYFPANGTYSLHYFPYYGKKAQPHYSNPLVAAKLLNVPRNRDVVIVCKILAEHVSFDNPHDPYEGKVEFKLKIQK
Method: Test 1 (Proton Pump Inhibitory Effect)
(1) Preparation of H^+/K^+-ATPase Enzyme Sample
A swine stomach which had been stored frozen was separated into a muscularis and a mucosal layer. After the mucosal layer was disrupted with a mixer in 5 volumes of 20 mmol/L tris-HCl buffer containing 0.25 mol/L of sucrose and 1 mmol/L of EGTA (pH 7.4, hereafter abbreviated as “tris-HCl buffer”), centrifugation was conducted at 9,000×g for 30 minutes. The supernatant was gently overlaid on 20 mmol/L tris-HCl buffer containing 30% of sucrose and 1 mmol/L of EGTA (pH 7.4, 8 mL), followed by ultracentrifugation at 100,000×g for 60 minutes. An interface fraction obtained by the centrifugation was collected and subjected to centrifugation twice under 113,000×g for 60 minutes. The sediment was suspended with tris-HCl buffer, and the suspension was homogenized at low rotational speed to provide an enzyme sample. The enzyme sample was stored frozen at −80° C. Using the method reported by Smith et al. (Anal. Biochem., 150, 76-85 (1985)), the thus-obtained sample was quantitatively analyzed for its protein content with a BCA protein assay reagent. The above procedure was all conducted under water cooling.
(2) Discussion about H+/K^+-ATPase Enzyme Inhibiting Activity at pH 1
Following a method making use of a method for the quantitation of inorganic phosphorus as a degradation product (Biochem. Biophys. Res. Commun., 40, 880-886 (1970)), an assay of H^+/K^+-ATPase enzyme inhibiting activity was performed by using ATP as a substrate. As a hydrochloric acid solution for the pretreatment of each test compound, a 1×10^−1 mol/L (pH 1) solution of hydrochloric acid with 50% DMSO contained therein was used. Solutions of each test compound at various concentrations were added to aliquots of the hydrochloric acid solution such that the solutions were diluted 1,000-fold, and the thus-diluted solutions were left over at room temperature for 15 minutes. […] 840-μL Aliquots of an enzyme solution (5 μg proteins) diluted with the TE buffer were then added. After incubated at 37° C. for 30 minutes, 50-μL aliquots of 40 mmol/LATP solution (dissolved in the TE buffer free of KCl) were added to initiate an enzymatic reaction (total volume: 1 mL, final ATP concentration: 2 mmol/L). Subsequent to incubation at 37° C. for 30 minutes, 2-mL aliquots of ice-cold 12% trichloroacetic acid were added to terminate the enzymatic reaction. A molybdenum reagent (1 mL; 3.75% ammonium molybdate/1.5 mol/L sulfuric acid) and butyl acetate (5 mL) were added. After vigorous shaking and mixing for 5 minutes, the absorbance of a butyl acetate layer was measured at 310 nm. From absorbances obtained by dissolving KH2PO4 solutions of various concentrations in aliquots of an 8% TCA solution and performing a similar procedure, a standard curve was prepared to perform a conversion of each quantity of inorganic phosphorus. The assay was conducted in duplicate. From a difference between an average quantity of inorganic phosphorus in the case of the KCl-containing TE buffer and an average quantity of inorganic phosphorus in the case of the KCl-free TE buffer, a residual activity was determined. Supposing that the activity of the control value (DMSO) was 100%, the percent inhibition of the compound was calculated. As the inhibition potency of each test compound, an IC50 value was calculated and presented. The test compounds were al used by dissolving them in dimethyl sulfoxide immediately before their use.

[2] = system: histamine-stimulated gastric acid secretion; assay: Test 2 gastric acid secretion inhibitory effect, acute fistula method; assay type: in vivo, Sprague-Dawley (SD) rats; details: male SD rats, administered into the duodenum; total gastric acid secreted on 3rd-5th hours; Probit method
Method: Test 2 (Gastric Acid Secretion Inhibitory Effect)
(1) As laboratory animals, seven-week old male Sprague-Dawley (SD) rats were purchased from CHARLES RIVER JAPAN, INC. Subsequent to preliminary rearing for 5 days or longer, they were used in an experiment.
Each test medicine was suspended or dissolved in a 0.5% carboxymethylcellulose sodium solution to prepare a volume of 2.5 mL/kg.
(2) Measurement of Gastric Acid Secretion
Using rats fasted for 18 hours, histamine-stimulated gastric acid secretion in an acute fistula method following the method reported by Hiramatsu et al. (Dig. Dis. Sci., 39, 689-697 (1994)) was measured. Described specifically, each rat was lightly anesthetized with diethyl ether. After that, a winged tube needle with 3.8% citric acid solution filled therein was caused to dwell in the caudal vein. Celiotomy was performed, and the pyloric part of the stomach was ligated. A small hole was then formed in the duodenum, and a feeding tube with physiological saline filled therein was caused to dwell there. After the interior of the stomach was washed with physiological saline, a polyethylene-made fistula tube (inner diameter: 4 mm) was fitted to the proventriculus part and an incised part of the proventriculus was ligated to hold the fistula tube in place. The stomach and duodenum were returned into the abdominal cavity. Celiotomy was performed with the fistula tube and feeding tube being left extending outside, and the rat was placed in a Ballman Cage Type II. Histamine was continuously injected through the winged needle allowed to dwell in the caudal vein (8 mg/kg/h, 1.38 mL/h). Fifteen minutes later, the gastric juice was sampled, and after that, the gastric juice was sampled at intervals of 1 hour. After the amount of each gastric juice sample was recorded, it was titrated with 0.1 mol/L NaOH to a final point of pH 7.0. From the volume required for the titration, the acidity was calculated. The quantity of the secreted gastric acid was determined from the product of the amount of the gastric juice and the acidity. Incidentally, the rats were divided into groups such that the total amount of the first gastric juice samples became equal in each group. Each test medicine was administered in a volume of 2.5 mL/kg into the duodenum through the feeding tube fitted beforehand in the duodenum. To a control group, 0.5% Na—CMC solution was administered.
(3) Analysis of the Results
From the results so obtained, data were presented in terms of average ±S.D. The sum of quantities of gastric acid secreted on the 3rd, 4th and 5th hours after the first sampling was recorded as a total quantity of secreted gastric acid. The percent inhibition in each group was calculated from the total quantity of secreted gastric acid in the control group and the total quantity of secreted gastric acid in the group. From the percent inhibition in each group, the 50% effective dose (ED50) was next calculated by the Probit method.

[3] = biological target: T2, human CYP2C19 (Homo sapiens, UniProt P33261); assay: Test 3 human CYP2C19 activity inhibition test (S-(+)-mephenyloin to 4'-hydroxymephenyloin); assay type: in vitro ADME; details: test compound 10 μM; microsomes from human CYP2C19 expression system; formed 4'-hydroxymephenyloin compared with control
T2 construct: purchased Sumitomo Chemical Co., Ltd
T2 sequence (P33261 whole entry): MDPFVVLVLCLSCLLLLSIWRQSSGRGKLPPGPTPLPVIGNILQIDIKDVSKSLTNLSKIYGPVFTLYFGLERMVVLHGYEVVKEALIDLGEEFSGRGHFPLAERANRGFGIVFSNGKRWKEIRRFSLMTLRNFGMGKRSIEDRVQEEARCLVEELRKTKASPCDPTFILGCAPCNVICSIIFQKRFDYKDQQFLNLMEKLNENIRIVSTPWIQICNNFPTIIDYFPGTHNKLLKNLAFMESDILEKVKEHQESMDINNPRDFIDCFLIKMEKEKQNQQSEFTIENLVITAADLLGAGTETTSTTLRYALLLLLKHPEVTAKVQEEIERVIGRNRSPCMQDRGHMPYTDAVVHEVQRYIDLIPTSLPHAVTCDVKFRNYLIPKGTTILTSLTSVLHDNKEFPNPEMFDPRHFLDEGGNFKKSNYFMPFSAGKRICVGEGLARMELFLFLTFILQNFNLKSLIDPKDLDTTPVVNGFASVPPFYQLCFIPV
Method: Test 3 (Human CPY2C19 Activity Inhibition Test)
CYP2C19 specifically induces the metabolic reaction of from S-(+)-mephenyloin into 4′-hydroxymephenyloin. Using the CYP2C19 expression system, the inhibitory effect of each test substance was investigated based on the amount (concentration) of formed 4′-hydroxymephenylion as an index of CYP2C19 activity.
a) Metabolic Activity Test
As a reaction mixture, a 125 μmol/L solution of S-(+)-mephenyloin in methanol (50 μL) and a 25 μmol/L solution of each test substance in methanol (0, 10, 100 or 200 μL) were added to 10-mL test tube made of glass, and the solvent was distilled off under a nitrogen gas stream (40° C.).
After incubated at 37° C. for 10 minutes, a 12% aqueous solution of perchloric acid (50 μL) was added to terminate the reaction.
Subsequent to the termination of the reaction, 10 μg/mL methyl p-hydroxybenzoate (50 μL) as an internal standard (I.S.) and diethyl ether (2 mL) were added. The resulting mixture was shaken for 10 minutes, and then centrifuged (3,000 rpm, 10 minutes). The organic layer was separately collected, and under a nitrogen gas stream (40° C.), the solvent was distilled off. The residue was dissolved in a mobile phase (200 μL), and an analysis was conducted by high performance liquid chromatography (HPLC).
Using a solution of 4′-hydroxymephenyloin in lieu of the S-(+)-mephenyloin solution, a calibration line was prepared following the above-described reaction method. Quantitation was conducted based on a peak area ratio of 4′-hydroxymephenyloin to the I.S. Comparing the formed amount of 4′-hydroxymephenyloin as a control with that of 4′-hydroxymephenyloin at the time of the existence of the test compound, the comparison result was used as an index of activity.
HPLC was conducted under the following HPLC conditions A or HPLC conditions B. […]

SMILES | IC50 [1] [µM] | melting point [°C] | other results
COC(=O)CNn1c([S+]([O-])Cc2nccc(OCC(F)(F)F)c2C)nc2ccccc21 (racemic) [Example 47] | 4.85 |  | 
Cc1c(OCC(F)(F)F)ccnc1C[S+]([O-])c1nc2cc(OC(F)F)ccc2n1N (stereo not drawn) [Example 68] | 3.2 | 194 to 195 | 
Cc1c(OCC(F)(F)F)ccnc1C[S+]([O-])c1nc2ccccc2n1NCC(O)c1ccccc1 (mixture of isomers) [Example 51] | 3.32 |  | Gastric acid secretion inhibitory effect ED50 [2]: 2.4 mg/kg
Cc1c(OCC(F)(F)F)ccnc1C[S+]([O-])c1nc2ccccc2n1N (single isomer, unassigned; (+)) (as salt: tartrate) [(+) isomer of Example 1, (+)-1-Amino-2-[[4-(2,2,2-trifluoroethoxy)-3-methylpyridin-2-yl]methylsulfinyl]benzimidazole] |  | 111 to 113 | 
Cc1c(OCC(F)(F)F)ccnc1C[S+]([O-])c1nc2ccccc2n1NCCc1ccccc1 (racemic) [Example 50] | 0.87 |  | 
CBc1cc(C)nc(C[S+]([O-])c2nc3ccccc3n2N)c1 (stereo not drawn) [Example 7] |  | 130 to 133 | 
COc1ccc2nc([S+]([O-])Cc3ncc(C)c(OC)c3C)n(N)c2n1 (stereo not drawn) [Example 78] |  | 174 to 175 | CYP2C19 activity inhibition (%) [3]: 62%
C=CCNn1c([S+]([O-])Cc2nccc(OCC(F)(F)F)c2C)nc2ccccc21 (racemic) [Example 64] | 2.28 |  | 
Cc1c(OCC(F)(F)F)ccnc1C[S+]([O-])c1nc2ccccc2n1NCCCCCO (racemic) [Example 54] | 3.88 |  | 
